Patent US20050009809A1, “Acridine derivatives and their use as medicaments” (priority 2003, published 2005)
≈ marks a conversion by molar mass, not a printed value. Read-outs that look alike come from different tables or passages of the source.

Assays:
[1] = system: lung carcinoma cell line NCI-H460; experiment: XTT proliferation assay, NCI-H460; type: cell-based, human; details: for EC50: Homo sapiens, read-out: XTT proliferation assay, EC50, NCI-H460
Description: (§1) The substances according to the invention were investigated for their antiproliferative activity in a proliferation test on established tumor cell lines. The test used determines the cellular dehydrogenase activity and makes possible a determination of the cell vitality and indirectly the cell count. The cell lines used are the human cervical carcinoma cell line KB/HeLa (ATCC CCL17), the ovarian adenocarcinoma cell line SKOV-3 (ATCC HTB77), the human glioblastoma cell line […] (NCI 503138) and the lung carcinoma cell line NCI-H460 (NCI 503473).
(§2) The adherently growing tumor cell lines KB/HeLa, SKOV-3, SF-268 and NCI-H460 were cultured under standard conditions in a fumigation incubator at 37° C., 5% CO2 and 95% atmospheric humidity. On experimental day 1, the cells are detached using trypsin/EDTA and pelleted by centrifugation. Subsequently, the cell pellet is resuspended in the respective culture medium at the corresponding cell count and reacted in a 96-well microtiter plate. The plates are then cultured overnight in the fumigation incubator. The test substances are prepared as 1 mg/ml stock solutions in DMSO and diluted to the appropriate concentrations on experimental day 2 using culture medium. The substances in culture medium are then added to the cells and incubated in the fumigation incubator for 45 h. As a control, cells which are not treated with test substance are used. For the XTT assay, 1 mg/ml of XTT (sodium 3′-[1-(phenylaminocarbonyl)-3,4-tetrazolium]-bis(4-methoxy-6-nitro)benzenesulfonic acid) is dissolved in RPMI-1640 medium without Phenol Red. Additionally, a 0.383 mg/ml PMS (N-methyldibenzopyrazine methylsulfate) solution in phosphate-buffered saline solution (PBS) is prepared. On experimental day 4, 75 μl/well of XTT-PMS mixture is pipetted onto the cell plates which in the meantime have been incubated with the test substances for 45 h. For this, shortly before use, the XTT solution is mixed with the PMS solution in the ratio 50:1 (vol:vol). The cell plates are then incubated in the fumigation incubator for a further 3 h and the optical density (OD490 nm) is determined in a photometer. By means of the OD490 nm determined, the percentage inhibition is calculated relative to the control and plotted semilogarithmically in the form of a concentration-action curve. The EC50 is calculated by means of a regression analysis from the concentration-action curve using the program Graphpad Prism.

[2] = system: human glioblastoma cell line SF-268; experiment: XTT proliferation assay, SF-268; type: cell-based; details: for EC50: Homo sapiens, read-out: XTT proliferation assay, EC50, SF-268
Description: as §1, §2

[3] = system: ovarian adenocarcinoma cell line SKOV-3; experiment: XTT proliferation assay, SKOV-3; type: cell-based, human; details: for EC50: Homo sapiens, SK-OV-3, read-out: XTT proliferation assay, EC50, SKOV3
Description: as §1, §2

[4] = system: human cervical carcinoma cell line KB/HeLa; experiment: XTT proliferation assay, KB/HeLa; type: cell-based; details: for EC50: Homo sapiens, read-out: XTT proliferation assay, EC50, KB/Hela
Description: as §1, §2

[5] = Saturation solubility in water; details: for solubility: water, thermodynamic from solid; for Water solubility compared to the comparison substances: versus comparison substances of WO0208194
Description: The saturation solubility in water is determined as described below. For incipient dissolution of the substances and to improve wetting of the samples, at most 1% of DMSO is added. To check the content, an HPLC-UV method was used.

[6] = NCI-H460 cells, 45 h incubation

| Compound | solubility [5] | EC50 [1, 6] | EC50 ([2]; SF-268 cells, 45 h incubation) | EC50 ([3]; SKOV-3 cells, 45 h incubation) | EC50 ([4]; KB/HeLa cells, 45 h incubation) | further results |
| --- | --- | --- | --- | --- | --- | --- |
| O=C(c1c2ccccc2nc2ccccc12)N1CCN(c2cccc(OP(=O)(O)Oc3cccc(N4CCN(C(=O)c5c6ccccc6nc6ccccc56)CC4)c3)c2)CC1 [Compound 11, bis-{3-[4-(Acridin-9-ylcarbonyl)piperazin-1-yl]phenyl}phosphate] | – | – | – | – | – | XTT proliferation assay, EC50, NCI-H460 [1, 6]: 0.293 µg/mL; XTT proliferation assay, EC50, SF-268 ([2]; SF-268 cells, 45 h incubation): 0.127 µg/mL; XTT proliferation assay, EC50, SKOV3 ([3]; SKOV-3 cells, 45 h incubation): 0.133 µg/mL; XTT proliferation assay, EC50, KB/Hela ([4]; KB/HeLa cells, 45 h incubation): 0.132 µg/mL |
| O=C(c1c2ccccc2nc2ccccc12)N1CCN(c2cccc(O)c2)CC1 [Acridin-9-yl-[4-(3-hydroxyphenyl)piperazin-1-yl]methanone, reference compound] | 0.03 µg/mL (≈ 0.0782 µM) | – | – | – | – | – |
| O=C(Oc1cccc(N2CCN(C(=O)c3c4ccccc4nc4ccccc34)CC2)c1)Oc1cccc(N2CCN(C(=O)c3c4ccccc4nc4ccccc34)CC2)c1 [Compound 19, bis-{3-[4-(Acridin-9-ylcarbonyl)piperazin-1-yl]phenyl}carbonate] | – | 0.026 µg/mL (≈ 0.0328 µM) | 0.025 µg/mL (≈ 0.0315 µM) | 0.013 µg/mL (≈ 0.0164 µM) | 0.02 µg/mL (≈ 0.0252 µM) | – |
| O=C(CCC(=O)OC1C(O)C(O)OC(CO)C1O)Oc1cccc(N2CCN(C(=O)c3c4ccccc4nc4ccccc34)CC2)c1 (centres unmarked) [Compound 25, 3-[4-(Acridin-9-ylcarbonyl)piperazin-1-yl]phenyl 2,3,5-trihydroxy-6-hydroxymethyltetrahydropyran-4-yl succinate] | 215 µg/mL | 0.035 µg/mL | 0.029 µg/mL | 0.014 µg/mL | 0.019 µg/mL | Water solubility compared to the comparison substances [5]: greatly improved water solubilities |
| O=C(NCCN1CCOCC1)Oc1cccc(N2CCN(C(=O)c3c4ccccc4nc4ccccc34)CC2)c1 [Compound 29, 3-[4-(Acridin-9-ylcarbonyl)piperazin-1-yl]phenyl (2-morpholin-4-yl-ethyl)carbamate] | 41 µg/mL (≈ 76 µM) | 0.027 µg/mL (≈ 0.05 µM) | 0.024 µg/mL (≈ 0.0445 µM) | 0.017 µg/mL (≈ 0.0315 µM) | 0.036 µg/mL (≈ 0.0667 µM) | Water solubility compared to the comparison substances [5]: greatly improved water solubilities |
| Mono-{3-[4-(acridin-9-ylcarbonyl)piperazin-1-yl]phenyl}glutarate [Compound 22] | – | – | – | – | – | XTT proliferation assay, EC50, NCI-H460 [1, 6]: 0.016 µg/mL; XTT proliferation assay, EC50, SF-268 ([2]; SF-268 cells, 45 h incubation): 0.019 µg/mL; XTT proliferation assay, EC50, SKOV3 ([3]; SKOV-3 cells, 45 h incubation): 0.007 µg/mL; XTT proliferation assay, EC50, KB/Hela ([4]; KB/HeLa cells, 45 h incubation): 0.01 µg/mL |
| CN1CCN(C(=O)CCC(=O)Oc2cccc(N3CCN(C(=O)c4c5ccccc5nc5ccccc45)CC3)c2)CC1 [Compound 21, 3-[4-(Acridin-9-ylcarbonyl)piperazin-1-yl]phenyl 4-(4-methylpiperazin-1-yl)-4-oxobutyrate] | 115 µg/mL (≈ 203 µM) | 0.025 µg/mL (≈ 0.0442 µM) | 0.027 µg/mL (≈ 0.0477 µM) | 0.018 µg/mL (≈ 0.0318 µM) | 0.024 µg/mL (≈ 0.0424 µM) | Water solubility compared to the comparison substances [5]: greatly improved water solubilities |
| O=C(CCC(=O)N(CCO)CCO)Oc1cccc(N2CCN(C(=O)c3c4ccccc4nc4ccccc34)CC2)c1 [Compound 20, 3-[4-(Acridin-9-ylcarbonyl)piperazin-1-yl]phenyl N,N-bis-(2-hydroxy-ethyl)succinate] | – | – | – | – | – | XTT proliferation assay, EC50, NCI-H460 [1, 6]: 0.027 µg/mL; XTT proliferation assay, EC50, SF-268 ([2]; SF-268 cells, 45 h incubation): 0.021 µg/mL; Absolute solubility in water ([5]; saturation solubility, at most 1% DMSO, HPLC-UV): 143.5 µg/mL; Water solubility compared to the comparison substances [5]: greatly improved water solubilities; XTT proliferation assay, EC50, SKOV3 ([3]; SKOV-3 cells, 45 h incubation): 0.014 µg/mL; XTT proliferation assay, EC50, KB/Hela ([4]; KB/HeLa cells, 45 h incubation): 0.023 µg/mL |
| CC1(C)OCC(C2OC3OC(C)(C)OC3C2OC(=O)CCC(=O)Oc2cccc(N3CCN(C(=O)c4c5ccccc5nc5ccccc45)CC3)c2)O1 (centres unmarked) [Compound 23, 3-[4-(Acridin-9-ylcarbonyl)piperazin-1-y;]phenyl 5-(2,2-dimethyl-[1,3]dioxolan-4-yl)-2,2-dimethyltetrahydrofuro[2,3-d][1,3]dioxol-6-yl succinate] | – | – | – | – | – | XTT proliferation assay, EC50, NCI-H460 [1, 6]: 0.055 µg/mL; XTT proliferation assay, EC50, SF-268 ([2]; SF-268 cells, 45 h incubation): 0.058 µg/mL; XTT proliferation assay, EC50, SKOV3 ([3]; SKOV-3 cells, 45 h incubation): 0.023 µg/mL; XTT proliferation assay, EC50, KB/Hela ([4]; KB/HeLa cells, 45 h incubation): 0.045 µg/mL |
| O=C(NCCCl)Oc1cccc(N2CCN(C(=O)c3c4ccccc4nc4ccccc34)CC2)c1 [Compound 30, 3-[4-(Acridin-9-ylcarbonyl)piperazin-1-yl]phenyl (2-chloroethyl)carbamate] | – | 0.025 µg/mL (≈ 0.0511 µM) | 0.026 µg/mL (≈ 0.0532 µM) | 0.019 µg/mL (≈ 0.0389 µM) | 0.029 µg/mL (≈ 0.0593 µM) | – |
| Cc1cccc(N2CCN(C(=O)c3c4ccccc4nc4cc(O)cc(O)c34)CC2)n1 [Compound 1, (1,3-Dihydroxyacridin-9-yl)-[4-(6-methylpyridin-2-yl)piperazin-1-yl]-methanone] | 83.9 µg/mL (≈ 202 µM) | – | – | – | – | Water solubility compared to the comparison substances [5]: greatly improved water solubilities |
| CC(C)NC(=O)Oc1cccc(N2CCN(C(=O)c3c4ccccc4nc4ccccc34)CC2)c1 [Compound 2, 3-[4-(Acridin-9-ylcarbonyl)piperazin-1-yl]phenyl isopropylcarbamate] | – | 0.062 µg/mL (≈ 0.132 µM) | 0.061 µg/mL (≈ 0.13 µM) | 0.039 µg/mL (≈ 0.0832 µM) | 0.051 µg/mL (≈ 0.109 µM) | – |
| O=C(c1c2ccccc2nc2ccccc12)N1CCN(c2cccc(OP(=O)(O)O)c2)CC1 [Compound 4, Mono-{3-[4-(acridin-9-ylcarbonyl)piperazin-1-yl]phenyl}phosphate] | – | – | – | – | – | XTT proliferation assay, EC50, NCI-H460 [1]: 0.272 µg/mL; XTT proliferation assay, EC50, SF-268 [2]: 0.140 µg/mL; XTT proliferation assay, EC50, SKOV3 [3]: 0.208 µg/mL; XTT proliferation assay, EC50, KB/Hela [4]: 0.018 µg/mL |
| COc1cccc(N2CCN(C(=O)c3c4ccccc4nc4ccccc34)CC2)c1 [Acridin-9-yl-[4-(3-methoxyphenyl)piperazin-1-yl]-methanone, reference compound] | 0.42 µg/mL (≈ 1.06 µM) | – | – | – | – | – |
| Cc1cccc(N2CCN(C(=O)c3c4ccccc4nc4ccccc34)CC2)n1 [Acridin-9-yl-[4-(6-methylpyridin-2-yl)piperazin-1-yl]methanone, reference compound] | 1.07 µg/mL (≈ 2.8 µM) | – | – | – | – | – |
| O=C(CCCCOC1C(O)C(O)OC(CO)C1O)Oc1cccc(N2CCN(C(=O)c3c4ccccc4nc4ccccc34)CC2)c1 (centres unmarked) [Compound 26, 3-[4-(Acridin-9-ylcarbonyl)piperazin-1-yl]phenyl 5-(2,3,5-trihydroxy-6-hydroxymethyltetrahydropyran-4-yloxy)pentanoate] | – | 0.054 µg/mL (≈ 0.0836 µM) | 0.047 µg/mL (≈ 0.0728 µM) | 0.026 µg/mL (≈ 0.0403 µM) | 0.042 µg/mL (≈ 0.065 µM) | – |
| CC1(C)OCC(C2OC3OC(C)(C)OC3C2OCCCCC(=O)Oc2cccc(N3CCN(C(=O)c4c5ccccc5nc5ccccc45)CC3)c2)O1 (centres unmarked) [Compound 24, 3-[4-(Acridin-9-ylcarbonyl)piperazin-1-yl]phenyl 5-[5-(2,2-dimethyl-[1,3]-dioxolan-4-yl)-2,2-dimethyltetrahydrofuro[2,3-d][1,3]dioxol-6-yloxy]-pentanoate] | – | 0.072 µg/mL (≈ 0.0992 µM) | 0.048 µg/mL (≈ 0.0661 µM) | 0.023 µg/mL (≈ 0.0317 µM) | 0.04 µg/mL (≈ 0.0551 µM) | – |
